Measured values reported in patent publication US10702607B2, “Abuse-deterrent pharmaceutical compositions” (priority 2016, dated 2020).

Key:
laccase [1] = assay: Laccase mediator system (LMS) with oxycodone: oxygen concentration measurement; format: biochemical; settings: mediator 2 mM, 10 units laccase ml^-1, 1000 mgL^-1 oxycodone
Experimental: During the reaction oxygen acts as electron acceptor and is reduced to water by laccases while the mediators are oxidized. The concentration of oxygen was measured as described above. Oxygen is consumed until the mediator is fully oxidized. […] The second step of the reaction is initiated by addition of the target substrate, which is consequently oxidized by the mediators.
In the present experiments the final reaction mixtures contained 0.2 to 6 mM mediator, 1-10 units of laccase per ml and 100-3000 mg L^−1 opioid.
The different mediators were used at concentrations of 2 mM with 10 units laccase ml^−1 and 1000 mgL^−1 oxycodone.

laccase [2] = assay: Laccase mediator system (LMS) with oxycodone: HPLC-MS/TOF measurement; settings: mediator 2 mM
pepsin = target: T1, pepsin (Sus scrofa, UniProt P00791); assay: Pepsin digestion assay in simulated gastric fluid (SGF) with SDS-PAGE analysis; format: in vitro ADME; settings: 37° C.
T1 construct: purchased Sigma-Aldrich (US) P7000
Experimental: SGF contains 0.084 M HCl, 0.035 M NaCl, 4000 U of pepsin per reaction mixture and has a pH level of 1.2 according to the United States Pharmacopeia (1995). A ratio of 10000 Units of pepsin activity to 1 mg of test protein was used throughout the assay, which is based on an evaluation of the average activity of pepsin recommended in the United States Pharmacopeia (24th edition, 2000) with some modifications. Pepsin (ref. # P7000) was purchased from Sigma-Aldrich (US). All proteins that were used were dissolved in 50 mM Tris-HCl (pH 9.5) at a concentration of 5 mg mL^−1. The reaction mixture contained 1.52 mL of SGF preheated to 37° C. before the addition of 0.08 mL of protein solution (Thomas et al., 2004). The mixture was placed into a thermomixer at 37° C. and was shaken at 400 rpm. For denaturating SDS-polyacrylamide gel electrophoresis (SDS-PAGE) analysis samples of 160 μl were removed at 0 minutes, 0.5 minutes, and 15 minutes after initiation.
SDS-PAGE was performed to analyze and visually inspect stained protein bands whether the protein band is still intact or fragmented after the digestion assay. […]
Each 160 μl of the digestion samples was quenched by […] of 200 mM NaHCO3 as neutralization step and 56 μl 4× Laemmli (Laemmli 1970) buffer for electrophoresis. Samples were immediately heated up to 99° C. for 10 minutes and analyzed directly or stored at −20° C. […]

T1 sequence (P00791 60-385): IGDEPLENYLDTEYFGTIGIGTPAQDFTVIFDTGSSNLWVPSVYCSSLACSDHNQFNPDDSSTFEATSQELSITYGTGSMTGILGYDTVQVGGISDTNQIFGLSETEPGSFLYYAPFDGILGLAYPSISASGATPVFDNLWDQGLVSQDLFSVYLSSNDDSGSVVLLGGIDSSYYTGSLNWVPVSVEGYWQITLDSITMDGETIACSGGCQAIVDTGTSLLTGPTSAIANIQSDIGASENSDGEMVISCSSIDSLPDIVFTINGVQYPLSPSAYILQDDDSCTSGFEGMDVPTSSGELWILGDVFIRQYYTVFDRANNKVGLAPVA

`CCOc1cc(C=O)ccc1O` [ethylvanillin] was tested, and the “oxygen concentration after the addition of oxycodone (oxidation of oxycodone)” value (“oxygen concentration after the addition” for short) (laccase [1]) was “drop in oxygen concentration”.

For `O=C(O)c1cc(O)c(O)c(O)c1` [gallic acid], the “oxygen concentration after the addition” value (laccase [1]) was “no apparent effect” and the “effect of mediator on oxycodone (MS-TOF analysis)” value (laccase [2]) was “no apparent effect”.

In the case of `COc1cc(C(=O)O)cc(OC)c1O` [syringic acid], the “oxygen concentration after the addition” value (laccase [1]) is reported as “drop in oxygen concentration”.

With `COc1cc(C=O)ccc1O` [vanillin] the “oxygen concentration after the addition” value (laccase [1]) was “drop in oxygen concentration”.

With “HRP: horseradish peroxidase (EC 1.11.1.7)” the proteolytic degradation (pepsin; SGF pH 1.2, pepsin 10000 Units per mg test protein, samples at 0, 0.5, 15 minutes, SDS-PAGE) was “very susceptible to proteolytic degradation” and the “protein band on SDS-PAGE after pepsin digestion” value (pepsin; SGF pH 1.2, pepsin) was “vanished within seconds”.
